One test has as its system MIA PaCa-2 cells. Nature of the test: Growth inhibition activity on KRAS-G12C mutant cell line (MIA PaCa-2), CellTiter-Glo 3D. Type of test: cell-based, human. Particulars: MIA PaCa-2, 3-day culture with compound. Summed up:
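Cells in RPMI1640 with 10% FBS were seeded in U-bottom plates and cultured 1 day at 37 °C, 5% CO2, then exposed to compound (0.2% DMSO final) for 3 more days. Viability read by CellTiter-Glo 3D luminescence; IC50 from growth inhibition relative to untreated wells.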

For test [1], the target named is T1, interaction between recombinant K-Ras4B G12C mutant protein and cRAF RAS-binding domain (cRAF-RBD) (Homo sapiens, UniProt P01116, G12C).
T1 construct: made in house; host or cells: E. coli
Briefly: Inhibitory activity on interaction between KRAS G12C and cRAF (Alpha technology). The class given is biochemical. Particulars: GMPPNP-bound KRAS G12C incubated with compound at 25° C. for 1 hour, then cRAF-RBD; Alpha signal. Summed up:
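GMPPNP-loaded His-tagged KRAS G12C (aa 1-169, E. coli) preincubated with compound 1 h at 25° C in Tris pH 7.5, 100 mM NaCl, 1 mM MgCl2, TCEP, 0.1% Tween 20; cRAF-RBD (aa 50-132) added, 1.5 h RT, Alpha signal read. DMSO = 0%, GDP-bound KRAS = 100% inhibition; IC50 from dose titration fit.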

Test [2] deals with Gppcp-bound recombinant K-Ras4B G12C mutant protein (amino acids 1-169, C51S/C80L/C118S) (Homo sapiens, UniProt P01116, C118S/C51S/C80L/G12C). Briefly: KRASG12C binding assay (LC-MS, compound binding rate). The following applies: test compound final concentration 0.5 μM, 25° C., 1 hour. The method, boiled down:
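Gppcp-bound K-Ras4B G12C (1-169; C51S/C80L/C118S), 50 nM in TBS with 0.1 mM TCEP, 0.25 mM MgCl2, 50 μM Gppcp, exposed to compound at 0.5 μM final for 1 h at 25 °C. Quenched with formic acid and analysed by intact-protein ESI LC-MS. Binding rate is the mono-adduct signal over total KRAS signal; graded A (≥80%) to E (<20%).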

16 molecules from patent publication US20240246968A1, “SMALL MOLECULE INHIBITORS OF KRAS G12C MUTANT” (Merck Sharp & Dohme LLC, priority 2021, published 2024) can be followed below.

The term IC50 denotes the concentration at which inhibition is half-maximal.

Structures are written as SMILES.

As to `Cc1nc2cc(-c3cccn4c(C(=O)c5cc(F)c(NC(=O)/C=C/CNC6CCCOC6)c(F)c5)ccc34)c(C(F)(F)F)cc2n1C` (stereo not drawn) [Example 78, (E)-N-(4-(8-(1,2-dimethyl-6-(trifluoromethyl)-1H-benzo[d]imidazol-5-yl)indolizine-3-carbonyl)-2,6-difluorophenyl)-4-((tetrahydro-2H-pyran-3-yl)amino)but-2-enamide], the IC50 was 0.12 µM in the test with MIA PaCa-2 cells (Homo sapiens, MIA PaCa-2, 72 h) and 0.051 µM in test [1]. The binding rate result in test [2] was “A (A binding rate of 80% or more is rated “A”)”.
On to `COc1c(-c2cccn3c(C(=O)c4cc(F)c(NC(=O)/C=C/CNC5(C)CC5)c(F)c4)cnc23)c(C(F)(F)F)cc2c1nc(C)n2C` (single isomer, unassigned) [Example 105-2, (E)-N-(2,6-difluoro-4-(8-(4-methoxy-1,2-dimethyl-6-(trifluoromethyl)-1H-benzo[d]imidazol-5-yl)imidazo[1,2-a]pyridine-3-carbonyl)phenyl)-4-((1-methylcyclopropyl)amino)but-2-enamide], for which the IC50 in the test with MIA PaCa-2 cells was determined as 0.943 µM; in test [1] it was 1.45 µM. The binding rate result in test [2] was “C (a binding rate of 40% or more and less than 60% is rated “C”)”.
`Cc1cc2c(nc(CC(N)=O)n2C)c(Cl)c1-c1cccn2c(C(=O)c3cc(F)c(NC(=O)/C=C/CNC(C)(C)C)c(F)c3)ccc12` [Example 73, (E)-N-(4-(8-(2-(2-amino-2-oxoethyl)-4-chloro-1,6-dimethyl-1H-benzo[d]imidazol-5-yl)indolizine-3-carbonyl)-2,6-difluorophenyl)-4-(tert-butylamino)but-2-enamide]: the IC50 with MIA PaCa-2 cells (Homo sapiens, MIA PaCa-2, 72 h) was 0.3 µM; in test [1] it was 0.073 µM. Also, the binding rate result in test [2] is “A (A binding rate of 80% or more is rated “A”)”.
The corresponding values for `CO[C@H]1CC[C@H](NC/C=C/C(=O)Nc2c(F)cc(C(=O)c3c(C4CC4)nc4c(-c5cc6nc(C)n(C)c6cc5C(F)(F)F)cccn34)cc2F)CC1` [Example 95, (E)-N-(4-(2-cyclopropyl-8-(1,2-dimethyl-6-(trifluoromethyl)-1H-benzo[d]imidazol-5-yl)imidazo[1,2-a]pyridine-3-carbonyl)-2,6-difluorophenyl)-4-(((1r,4r)-4-methoxycyclohexyl)amino)but-2-enamide] are 0.28 µM, 0.13 µM and “A (A binding rate of 80% or more is rated “A”)”.
Turning to `CCc1cc2c(nc(C)n2C)c(Cl)c1-c1cccn2c(C(=O)c3cc(F)c(NC(=O)/C=C/CNC4CCOCC4)c(F)c3)ccc12` [Example 17, (E)-N-(4-(8(4-chloro-6-ethyl-1,2-dimethyl-1H-benzo[d]imidazol-5-yl)indolizine-3-carbonyl)-2,6-difluorophenyl)-4-((tetrahydro-2H-pyran-4-yl)amino)but-2-enamide], the IC50 with MIA PaCa-2 cells (Homo sapiens, MIA PaCa-2, 72 h) is 0.032 µM; in test [1] it was 0.048 µM. Also, the binding rate entry in test [2] was “A (A binding rate of 80% or more is rated “A”)”.
The corresponding values for `CO[C@H]1CC[C@H](NC/C=C/C(=O)Nc2c(F)cc(C(=O)c3ccc4c(-c5c(C(F)(F)F)cc6c(nc(CO)n6C)c5Cl)cccn34)cc2F)CC1` [Example 67, (E)-N-(4-(8-(4-chloro-2-(hydroxymethyl)-1-methyl-6-(trifluoromethyl)-1H-benzo[d]imidazol-5-yl)indolizine-3-carbonyl)-2,6-difluorophenyl)-4-(((1r,4r)-4-methoxycyclohexyl)amino)but-2-enamide] are 0.051 µM, 0.038 µM and “A (A binding rate of 80% or more is rated “A”)”.
The corresponding values for `Cc1nc2cc(-c3cccn4c(C(=O)c5cc(F)c(NC(=O)/C=C/CNC6(C)CCOCC6)c(F)c5)ccc34)c(C(F)(F)F)cc2n1C` [Example 26] are 0.082 µM, 0.062 µM and “A (A binding rate of 80% or more is rated “A”)”.
The corresponding values for `Cc1nc2cc(-c3cccn4c(C(=O)c5cc(F)c(NC(=O)/C=C/CNC67CCC(F)(CC6)C7)c(F)c5)ccc34)c(C(F)(F)F)cc2n1C` [Example 84, (E)-N-(4-(8-(1,2-dimethyl-6-(trifluoromethyl)-1H-benzo[d]imidazol-5-yl)indolizine-3-carbonyl)-2,6-difluorophenyl)-4-((4-fluorobicyclo[2.2.1]heptan-1-yl)amino)but-2-enamide] are 0.12 µM, 0.091 µM and “A (A binding rate of 80% or more is rated “A”)”.
With `COc1cc2c(ncn2C)c(Cl)c1-c1cccn2c(C(=O)c3cc(F)c(NC(=O)/C=C/CN[C@H]4CC[C@H](OC)CC4)c(F)c3)ccc12` (single isomer, unassigned) [Example 41-1, (E)-N-(4-(8-(4-chloro-6-methoxy-1-methyl-1H-benzo[d]imidazol-5-yl)indolizine-3-carbonyl)-2,6-difluorophenyl)-4-(((1r,4r)-4-methoxycyclohexyl)amino)but-2-enamide], the IC50 was 0.032 µM in the test on MIA PaCa-2 cells (Homo sapiens, MIA PaCa-2, 72 h) and 0.052 µM in test [1]. The binding rate entry in test [2] is listed as “A (A binding rate of 80% or more is rated “A”)”.
Turning to `Cc1cc2c(nc(C)n2C)c(Cl)c1-c1cccn2c(C(=O)c3cc(F)c(NC(=O)/C=C/CNC(C)(C)C)c(F)c3)ccc12` (single isomer, unassigned) [Example 18-2, (E)-4-(tert-butylamino)-N-(4-(8-(4-chloro-1,2,6-trimethyl-1H-benzo[d]imidazol-5-yl)indolizine-3-carbonyl)-2,6-difluorophenyl)but-2-enamide], the results for the IC50 (in the test with MIA PaCa-2 cells; in test [1]) were 0.23 µM and 0.22 µM, respectively. In test [2], the binding rate entry is listed as “A (A binding rate of 80% or more is rated “A”)”.
The corresponding values for `CO[C@H]1CC[C@H](NC/C=C/C(=O)Nc2c(F)cc(C(=O)c3ccc4c(-c5c(C)cc6c(nc(C)n6C)c5Cl)cccn34)cc2F)CC1` (single isomer, unassigned) [Example 19-1, (E)-N-(4-(8-(4-chloro-1,2,6-trimethyl-1H-benzo[d]imidazol-5-yl)indolizine-3-carbonyl)-2,6-difluorophenyl)-4-(((1r,4r)-4-methoxycyclohexyl)amino)but-2-enamide] are 0.047 µM, 0.02 µM and “A (A binding rate of 80% or more is rated “A”)”.
For the molecule `COc1c(-c2cccn3c(C(=O)c4cc(F)c(NC(=O)/C=C/CNC(C)(C)C)c(F)c4)ccc23)c(C)cc2c1nc(C)n2C` (single isomer, unassigned) [Example 40-2], the IC50 with MIA PaCa-2 cells was 0.073 µM; in test [1], 0.021 µM. The binding rate entry in test [2] is “A (A binding rate of 80% or more is rated “A”)”.
In the case of `CO[C@H]1CC[C@H](NC/C=C/C(=O)Nc2c(F)cc(C(=O)c3ccc4c(-c5c(C(F)F)cc6c(nc(C)n6C)c5Cl)cccn34)cc2F)CC1` [Example 64, (E)-N-(4-(8-(4-chloro-6-(difluoromethyl)-1,2-dimethyl-1H-benzo[d]imidazol-5-yl)indolizine-3-carbonyl)-2,6-difluorophenyl)-4-(((1r,4r)-4-methoxycyclohexyl)amino)but-2-enamide], the IC50 came out at 0.025 µM with MIA PaCa-2 cells (Homo sapiens, MIA PaCa-2, 72 h) and 0.046 µM in test [1]. Further, the binding rate result in test [2] was “A (A binding rate of 80% or more is rated “A”)”.
For `COc1cc2c(nc(C)n2C)c(Cl)c1-c1cccn2c(C(=O)c3cc(F)c(NC(=O)/C=C/CN[C@H]4CC[C@H](OC)CC4)c(F)c3)ccc12` (single isomer, unassigned) [Example 35-2, (E)-N-(4-(8-(4-chloro-6-methoxy-1,2-dimethyl-1H-benzo[d]imidazol-5-yl)indolizine-3-carbonyl)-2,6-difluorophenyl)-4-(((1r,4r)-4-methoxycyclohexyl)amino)but-2-enamide], the values for the IC50 (in the test with MIA PaCa-2 cells; in test [1]) were 0.073 µM and 0.053 µM, respectively. The binding rate entry in test [2] is listed as “A (A binding rate of 80% or more is rated “A”)”.
The corresponding values for `Cc1nc2c(Cl)c(-c3cccn4c(C(=O)c5cc(F)c(NC(=O)/C=C/CNC6CCOCC6)c(F)c5)ccc34)c(C(F)(F)F)cc2n1C` (single isomer, unassigned) [Example 57-1, (E)-N-(4-(8-(4-chloro-1,2-dimethyl-6-(trifluoromethyl)-1H-benzo[d]imidazol-5-yl)indolizine-3-carbonyl)-2,6-difluorophenyl)-4-((tetrahydro-2H-pyran-4-yl)amino)but-2-enamide] are 0.02 µM, 0.043 µM and “A (A binding rate of 80% or more is rated “A”)”.
As to `CCc1cc(C(=O)c2cc(F)c(NC(=O)/C=C/CN[C@H]3CC[C@H](OC)CC3)c(F)c2)n2cccc(-c3c(C)cc4c(nc(C)n4C)c3Cl)c12` [Example 89, (E)-N-(4-(8-(4-chloro-1,2,6-trimethyl-1H-benzo[d]imidazol-5-yl)-1-ethylindolizine-3-carbonyl)-2,6-difluorophenyl)-4-(((1r,4r)-4-methoxycyclohexyl)amino)but-2-enamide], the IC50 in the test on MIA PaCa-2 cells (Homo sapiens, MIA PaCa-2, 72 h) was found to be 0.1 µM; in test [1], 0.022 µM. Also, in test [2], the binding rate result is given as “A (A binding rate of 80% or more is rated “A”)”.
